Results from patent US20190254274A1, “COMPOSITE MATERIALS DESIGNED TO POSSES BIO-ACTIVE PROPERTIES AND SYNTHESIS AND USES THEREO” (ADA Foundation, priority 2018, published 2019).

What was measured:
Format in all cases: cell-based
[1] = tested on: Resolvin D1 (RvD1) expression and release; assay: Resolvin D1 ELISA, LPS-challenged human macrophages
Description: (§1) All chemicals, unless otherwise indicated, were procured from Sigma-Aldrich and used without additional purification. Stock solutions of Docosahexaenoic acid (DHA) in Dimethyl Sulfoxide (DMSO), Aspirin in physiologically buffered saline (PBS, pH 7.4) were prepared prior to their use. E. Coli derived Lipopolysaccharide (LPS) was reconstituted at 1 ug/mL, sterile filtered, and stored at −80 C until needed. RAW 264.7 murine macrophage cell line was obtained from ATCC (Manassas, Va.). Cells were thawed at passage 5 or 6 and were maintained in DMEM complete growth media supplemented with 10% FBS (Hyclone, GE Healthcare)+1% Penn/strep (Gibco) until needed. Peripheral blood derived primary human CD14+monocytes (BioreclamationlVT, Albany, N.Y.) were also maintained in DMEM growth media until needed. Prior to experimentation, monocytes were differentiated to macrophages by using macrophage colony stimulating factor (M-CSF) at 25 ng/mL in media for up to three days or until cells had reached near confluence (˜95%). RAW 264.7 cells were seeded at roughly 5,000 cells per well in a 96-well plate and allowed to grow to near confluence. At confluence, cells were pre-treated with LPS for 2 hours. At the 2-hour mark, cells were treated with DMEM media containing DMSO (1% w/w, negative control), Aspirin (positive control, 10 nmol/L), DHA (100 umol/L) or a combination of the two. Bio-active composite material Hydroxyapatite-Docosahexaenoic acid (HA-DHA) was dispersed in DMSO and delivered at similar concentrations as DHA alone (described above). Cells were harvested at 2, 4, and 6 hours after LPS stimulation. Human CD14+ cells were seeded at roughly 3.3*10^4 cells per well in a 96-well plate and treated with MCSF until full confluence. Cells were treated with LPS for 2 hours, at which time they were exposed to the same treatments described above for RAW 264.7 cells. Cells were harvested at 4 and 6 hours. […]
(§2) Following each treatment, sample media was tested for inflammatory tumor necrosis factor alpha (TNF-alpha) expression using a commercially available sandwich ELISA kits designed for either mouse or human cells (R&D Systems). Samples showing reduction in TNF-alpha were further analyzed using the Resolvin D1 and Resolvin D2 ELISA kits (Cayman Chemical). Mean and standard deviations were calculated for each analyte. ELISA results were normalized to the total protein readings of each well. […]
(§3) To investigate further the anti-inflammatory effects the inventors observed in both human and murine macrophages challenged with pathogenic LPS and to determine if the bio-active composite material HA-DHA on its' own and in combination with Aspirin induces formation of pro-resolution mediators, the inventors measured Resolvin production secreted from challenged human macrophages.

[2] = tested on: Resolvin D2 (RvD2) expression and release; assay: Resolvin D2 ELISA, LPS-challenged human macrophages
Description: as §1, §2, §3

[3] = tested on: TNF-alpha expression in primary human CD14+ cells; assay: TNF-alpha ELISA in LPS-stimulated human CD14+ monocyte-derived macrophages; settings: 2 hr LPS+4 hr Tx
Description: All chemicals, unless otherwise indicated, were procured from Sigma-Aldrich and used without additional purification. Stock solutions of Docosahexaenoic acid (DHA) in Dimethyl Sulfoxide (DMSO), Aspirin in physiologically buffered saline (PBS, pH 7.4) were prepared prior to their use. E. Coli derived Lipopolysaccharide (LPS) was reconstituted at 1 ug/mL, sterile filtered, and stored at −80 C until needed. RAW 264.7 murine macrophage cell line was obtained from ATCC (Manassas, Va.). Cells were thawed at passage 5 or 6 and were maintained in DMEM complete growth media supplemented with 10% FBS (Hyclone, GE Healthcare)+1% Penn/strep (Gibco) until needed. Peripheral blood derived primary human CD14+monocytes (BioreclamationlVT, Albany, N.Y.) were also maintained in DMEM growth media until needed. […]
as §2

[4] = earlier time point (FIG. 19, Table 2)
[5] = 2 hours LPS + 6 hours treatment (Table 5)

Row | SMILES | Resolvin D1 (RvD1) expression and release (Mean) ([1]; 2-hour+6-hour Tx (Table 3)) | Resolvin D1 (RvD1) expression and release (Mean) [1, 4] | Resolvin D2 (RvD2) expression (Mean) ([2]; 2 hour LPS+4 hr Tx (Table 4)) | Resolvin D2 (RvD2) expression (Mean) [2, 5] | TNF-alpha expression (Mean) [3] [pg/µg]
1 | CC/C=C\C/C=C\C/C=C\C/C=C\C/C=C\C/C=C\CCC(=O)O [DHA, 4Z, 7Z, 10Z, 13Z, 16Z, 19Z)-docosa-4,7,10,13,16,19-hexaenoic acid] | 678 | 771.1 | 194.2 | 161.9 | 10.5
2 | CC(=O)Oc1ccccc1C(=O)O [Aspirin] | 16.96 | 18.87 | 25.02 | 73.25 | 9.1
